Here are results for two compounds from patent EP2478902A1, “PHARMACEUTICAL COMPOSITION FOR REDUCING WEIGHT AND METHOD FOR THE PRODUCTION THEREOF” (World-Trade Import-Export Wtie, AG, priority 2009, dated 2011).

Test [1] in a line: Comparative, open-label, controlled clinical trial of Orlistat/L-Carnitine (OL-CA) vs Orlistat (OL) and L-Carnitine (CA) in adults with overweight above 10 %. To be noted: end of treatment (12 weeks), n = 20 per group; for subjects who reached a normal weight: one capsule a day. In kind it is in vivo, human. The protocol: A randomised, parallel, cross-over, prospective, open-label clinical trial.
Male and/or female subjects aged above 18 years, with overweight above 10 % their ideal weight.
• Group 1. Orlistat (OL) 120 mg, one capsule a day for 12 weeks. • Group 2. L-Carnitine (CA) 600 mg, one capsule a day for 12 weeks. • Group 3. Orlistat 120 mg and L-Carnitine 600 mg (OL-CA) in one capsule a day for 12 weeks.
• No other drug therapy was permitted for obesity and overweigh using any administration route during the clinical trial.
• Three treatment groups with random distribution 1:!;1
• Male and/or female subjects over 18 years of age. • Overweight above 10 % of their ideal weight or a Body Mass Index (BMI) of 28 kg/m2 or higher. • Poor response to previous diet therapy. • No participation in a clinical trial with a test drug or device for 30 days before the planned start of treatment. • Patients with or without risk factors associated with obesity (type 2 diabetes and systemic hypertension). • Following a nutritionally balanced and moderately hypocaloric plan containing about 30 % of calories from fat. • Women with child-bearing potential should use some contraceptive method during the treatment.
• Under 18 years of age • History of hypersensitivity to the components of the formula • Patients with any organ failure • Patients with a history of intolerance to lactose • Patients with a history of bowel malabsorption syndrome and cholestasis • Patients with suspected or diagnosed pancreatic disorder • Pregnant and/or nursing women • Diagnosed or suspected thyroid disorder • Patients currently on anticoagulants or cyclosporine and amiodarone.
Randomisation in to the study was stratified at a 1:1:1 ratio. The subjects were classified according to their body mass index. • Group A, 20 subjects with overweight, BMI of 25 to 29.9 kg/m2 • Group B, 20 subjects with grade 2 obesity, BMI of 30-39 kg/m2 • Group C, 20 subjects with grade 3 obesity BMI above 40 kg/m2 With regard to the BMI, the following values and interpretation are given • BMI 20 to 25 kg/m^2 = normal weight • BMI 25 to 29.9 kg/m^2 = Overweight • BMI 30 to 39 kg/m^2 - Grade 2 obesity • BMI above 40 kg/m^2 = Grade 3 obesity

For test [2] the following is noted: 15 mg/kg/day of L-Carnitine, 26 weeks, cited from earlier work.
The conditions of test [3]: 3,000 mg/day of L-Carnitine, 10 weeks, calorie restriction, increased physical activity; cited from earlier work.
The conditions of test [4]: 2,000 mg/day of L-Carnitine, 26 weeks, diet of 1,400 to 1,600 Kcal/day; cited from earlier work.

Each structure is given as a SMILES string.

Turning to `C[N+](C)(C)C[C@H](O)CC(=O)[O-]` [CA, L-Carnitine], in test [1], the “patients reaching grade 2 obesity” value is 75%, the “patients reaching grade 2 obesity (number)” value is reported as 15 subjects, the “subjects who documented overweight” value is given as 15% and the “subjects who documented overweight (number)” value is 3 subjects. In test [1], the “subjects who reached a normal weight (number)” value was “one”, the “subjects with grade 3 obesity” value stood at 5%, the “subjects with grade 3 obesity (number)” value is given as 1 subjects and the “subjects who reached a normal weight” value amounted to 5%. Also, the “weight loss in the treatment group” value in test [2] (restriction of 1,500 Kcal in diet, 60 subjects with obesity) is 1.9 kg. In addition, the “weight loss (significance)” value in test [2] is reported as “not significant”. In addition, the “weight loss between the two groups” value in test [3] is “No significant weight loss”. In addition, in test [4], the “weight loss or differences between the groups at the end of the study” value is on record as “No significant weight loss or differences between the groups”.
With `CCCCCCCCCCC[C@@H](C[C@@H]1OC(=O)[C@H]1CCCCCC)OC(=O)[C@H](CC(C)C)NC=O` [OL], in test [1], the “patients reaching grade 2 obesity” value is given as 65%, the “patients reaching grade 2 obesity (number)” value came out at 13 subjects, the “subjects who documented overweight” value is 10% and the “subjects who documented overweight (number)” value worked out at 2 subjects. In test [1], the “subjects who reached a normal weight (number)” value is “one”, the “subjects with grade 3 obesity” value is given as 20%, the “subjects with grade 3 obesity (number)” value amounted to 4 subjects and the “subjects who reached a normal weight” value was found to be 5%.
